In PubChem BioAssay AID1259407 (Chemical Carcinogenesis Research Information System (CCRIS), 2018):
Active and inactive are the calls of the source. The rule behind the calls is not given here.

System: CCRIS mutagenicity, Ames/micronucleus/aberration tests
Test: CCRIS mutagenicity studies

Measured: mutagenic call

CCCCCCCC/C=C/CCCCCCCC(=O)OCCOCC(OCCO)C1OCC(OCCO)C1OCCO (stereo not given)
inactive: Test System: AMES SALMONELLA TYPHIMURIUM, Strain/Indicator: TA98, Metabolic Activation: HAMSTER, LIVER, S-9, AROCLOR 1254 (10%), Method: PREINCUBATION inactive; negative | Test System: AMES SALMONELLA TYPHIMURIUM, Strain/Indicator: TA98, Metabolic Activation: NONE, Method: PREINCUBATION inactive; negative | Test System: AMES SALMONELLA TYPHIMURIUM, Strain/Indicator: TA98, Metabolic Activation: RAT, LIVER, S-9, AROCLOR 1254 (10%), Method: PREINCUBATION inactive; negative | Test System: AMES SALMONELLA TYPHIMURIUM, Strain/Indicator: TA100, Metabolic Activation: HAMSTER, LIVER, S-9, AROCLOR 1254 (10%), Method: PREINCUBATION inactive; negative | Test System: AMES SALMONELLA TYPHIMURIUM, Strain/Indicator: TA100, Metabolic Activation: NONE, Method: PREINCUBATION inactive; negative | Test System: AMES SALMONELLA TYPHIMURIUM, Strain/Indicator: TA100, Metabolic Activation: RAT, LIVER, S-9, AROCLOR 1254 (10%), Method: PREINCUBATION inactive; negative | Test System: AMES SALMONELLA TYPHIMURIUM, Strain/Indicator: TA1535, Metabolic Activation: HAMSTER, LIVER, S-9, AROCLOR 1254 (10%), Method: PREINCUBATION inactive; negative | Test System: AMES SALMONELLA TYPHIMURIUM, Strain/Indicator: TA1535, Metabolic Activation: NONE, Method: PREINCUBATION inactive; negative | Test System: AMES SALMONELLA TYPHIMURIUM, Strain/Indicator: TA1535, Metabolic Activation: RAT, LIVER, S-9, AROCLOR 1254 (10%), Method: PREINCUBATION inactive; negative | Test System: AMES SALMONELLA TYPHIMURIUM, Strain/Indicator: TA1537, Metabolic Activation: HAMSTER, LIVER, S-9, AROCLOR 1254 (10%), Method: PREINCUBATION inactive; negative | Test System: AMES SALMONELLA TYPHIMURIUM, Strain/Indicator: TA1537, Metabolic Activation: NONE, Method: PREINCUBATION inactive; negative | Test System: AMES SALMONELLA TYPHIMURIUM, Strain/Indicator: TA1537, Metabolic Activation: RAT, LIVER, S-9, AROCLOR 1254 (10%), Method: PREINCUBATION inactive; negative

c1cc2c3c(cccc3c1)-c1c-2c2ccccc2c2ccccc12
inactive: Test System: HUMAN H1A1V2 CELLS, Strain/Indicator: TK LOCUS, Metabolic Activation: NONE, Method: SUSPENSION/PLATE inactive; negative

Nc1nc2ccc(Cl)cc2[nH]1
inactive: Test System: AMES SALMONELLA TYPHIMURIUM, Strain/Indicator: TA98, Metabolic Activation: RAT, LIVER, S-9, AROCLOR 1254, Method: PREINCUBATION inactive; negative | Test System: AMES SALMONELLA TYPHIMURIUM, Strain/Indicator: TA100, Metabolic Activation: RAT, LIVER, S-9, AROCLOR 1254, Method: PREINCUBATION inactive; negative
